Columns and labels:
[1] = 101.33 kPa, Liquid
[2] = xn = mol fraction of the nth substance listed; settings: 101 kPa, Liquid
[3] = excess molar enthalpy (molar enthalpy of mixing); xn = mol fraction of the nth substance listed; settings: 298.15 K, 101 kPa, Liquid, Calvet calorimetry

CC(C)CO [2-methyl-1-propanol]
[1]
Settings | mass density [kg/m3] | viscosity [mPa·s]
293.15 K | 801.28 | 3.943
298.15 K | 797.74 | 3.332
303.15 K | 794.32 | 2.884

CC(C)(C)O [2-methylpropan-2-ol]
[1]
Settings | mass density [kg/m3] | viscosity [mPa·s]
293.15 K | 795.68 | 5.486
298.15 K | 780.65 | 4.436
303.15 K | 775.76 | 3.378

O=C1CCCN1 [2-pyrrolidinone]
[1]
Settings | mass density [kg/m3] | viscosity [mPa·s]
293.15 K | 1109.84 | 15.84
298.15 K | 1106.98 | 13.07
303.15 K | 1103.38 | 10.69

O=C1CCCN1 [2-pyrrolidinone] + CC(C)(C)O
[2]
Settings | mass density, 293.15 K [kg/m3] | mass density, 298.15 K [kg/m3] | mass density, 303.15 K [kg/m3] | viscosity, 293.15 K [mPa·s] | viscosity, 298.15 K [mPa·s] | viscosity, 303.15 K [mPa·s]
x1 = 0.0786 | 806.96 | 802 | 797.13 | 4.778 | 3.771 | 3.586
x1 = 0.1832 | 836.27 | 831.45 | 826.69 | 3.931 | 3.23 | 2.732
x1 = 0.2489 | 855.32 | 850.57 | 845.86 | 3.399 | 2.698 | 2.053
x1 = 0.3105 | 873.59 | 868.94 | 864.29 | 2.824 | 2.109 | 1.481
x1 = 0.3875 | 897.03 | 892.52 | 887.93 | 2.167 | 1.547 | 0.786
x1 = 0.4556 | 918.3 | 913.93 | 909.39 | 1.857 | 1.333 | 0.464
x1 = 0.5003 | 932.55 | 928.28 | 923.8 | 1.665 | – | –
x1 = 0.5734 | 956.36 | 952.27 | 947.87 | 1.87 | 1.496 | –
x1 = 0.6544 | 983.51 | 979.59 | 975.32 | 2.478 | 2.049 | 1.049
x1 = 0.7236 | 1007.36 | 1003.63 | 999.49 | 3.648 | 3.252 | 2.12
x1 = 0.7995 | 1034.28 | 1030.79 | 1026.74 | 5.671 | 5.011 | 3.681
x1 = 0.8672 | 1059.06 | 1055.73 | 1051.83 | 8.035 | 7.463 | 5.849
x1 = 0.9237 | 1080.26 | 1077.13 | 1073.37 | 10.94 | 9.609 | 8.042
x1 = 0.9823 | 1102.87 | 1099.95 | 1096.31 | 14.34 | 12.12 | 9.894

[3]
Settings | excess molar enthalpy [kcal/mol]
x1 = 0.0498 | 0.0345
x1 = 0.1189 | 0.0582
x1 = 0.1932 | 0.077
x1 = 0.2551 | 0.0902
x1 = 0.3309 | 0.102
x1 = 0.3946 | 0.106
x1 = 0.4411 | 0.106
x1 = 0.4943 | 0.103
x1 = 0.5766 | 0.0947
x1 = 0.6806 | 0.081
x1 = 0.7422 | 0.0687
x1 = 0.8435 | 0.0413
x1 = 0.9312 | 0.0257

O=C1CCCN1 [2-pyrrolidinone] + CC(C)CO
[2]
Settings | mass density, 293.15 K [kg/m3] | mass density, 298.15 K [kg/m3] | mass density, 303.15 K [kg/m3] | viscosity, 293.15 K [mPa·s] | viscosity, 298.15 K [mPa·s] | viscosity, 303.15 K [mPa·s]
x1 = 0.0889 | 824.77 | 821.28 | 817.86 | 3.624 | 3.033 | 2.921
x1 = 0.1776 | 848.94 | 845.47 | 842.04 | 3.381 | 2.802 | 2.596
x1 = 0.2378 | 865.74 | 862.31 | 858.86 | 2.987 | 2.57 | 2.409
x1 = 0.3009 | 883.75 | 880.34 | 876.86 | 2.87 | 2.483 | 2.167
x1 = 0.3978 | 912.12 | 908.8 | 905.28 | 2.787 | 2.487 | 1.789
x1 = 0.4456 | 926.49 | 923.19 | 919.66 | 2.833 | 2.483 | 1.75
x1 = 0.5106 | 946.36 | 943.11 | 939.59 | 3.145 | 2.736 | 1.783
x1 = 0.5844 | 969.46 | 966.29 | 962.76 | 3.686 | 3.262 | 2.118
x1 = 0.6489 | 990.11 | 987 | 983.49 | 4.428 | 3.966 | 2.645
x1 = 0.7126 | 1010.87 | 1007.83 | 1004.4 | 5.569 | 4.938 | 3.369
x1 = 0.7943 | 1038.14 | 1035.18 | 1031.8 | 7.61 | 6.753 | 4.876
x1 = 0.8564 | 1059.36 | 1056.43 | 1053.04 | 9.46 | 8.552 | 6.388
x1 = 0.9126 | 1078.91 | 1075.98 | 1072.53 | 11.57 | 10.27 | 8.021
x1 = 0.9753 | 1100.98 | 1098.14 | 1094.58 | 14.55 | 12.91 | 10.15

[3]
Settings | excess molar enthalpy [kcal/mol]
x1 = 0.0522 | 0.029
x1 = 0.1222 | 0.0512
x1 = 0.1812 | 0.065
x1 = 0.2451 | 0.0714
x1 = 0.3296 | 0.0748
x1 = 0.4043 | 0.074
x1 = 0.4535 | 0.0711
x1 = 0.5022 | 0.0663
x1 = 0.5912 | 0.0582
x1 = 0.6807 | 0.0489
x1 = 0.7402 | 0.043
x1 = 0.8466 | 0.0286
x1 = 0.9233 | 0.0171

O=C1CCCN1 [2-pyrrolidinone] + CCC(C)O
[2]
Settings | mass density, 293.15 K [kg/m3] | mass density, 298.15 K [kg/m3] | mass density, 303.15 K [kg/m3] | viscosity, 293.15 K [mPa·s] | viscosity, 298.15 K [mPa·s] | viscosity, 303.15 K [mPa·s]
x1 = 0.0995 | 831.58 | 828.13 | 824.55 | 3.409 | 2.829 | 2.3
x1 = 0.1675 | 849.93 | 846.53 | 842.94 | 3.108 | 2.409 | 1.896
x1 = 0.2444 | 871.14 | 867.8 | 864.23 | 3.034 | 2.443 | 1.707
x1 = 0.2996 | 886.73 | 883.42 | 879.83 | 2.84 | 2.461 | 1.724
x1 = 0.3945 | 914.18 | 910.92 | 907.3 | 2.982 | 2.561 | 1.834
x1 = 0.4531 | 931.54 | 928.3 | 924.68 | 3.084 | 2.698 | 2.068
x1 = 0.4967 | 944.64 | 941.43 | 937.81 | 3.237 | 2.856 | 2.348
x1 = 0.5546 | 962.32 | 959.15 | 955.53 | 3.668 | 3.241 | 2.702
x1 = 0.6402 | 989.06 | 985.96 | 982.36 | 4.673 | 4.125 | 3.405
x1 = 0.7126 | 1012.23 | 1009.19 | 1005.62 | 5.995 | 5.238 | 4.304
x1 = 0.7895 | 1037.38 | 1034.41 | 1030.84 | 7.928 | 6.821 | 5.519
x1 = 0.8438 | 1055.57 | 1052.66 | 1049.12 | 9.691 | 8.277 | 6.842
x1 = 0.9096 | 1078.09 | 1075.19 | 1071.64 | 11.74 | 10.1 | 8.162
x1 = 0.9767 | 1101.54 | 1098.73 | 1095.14 | 14.73 | 12.47 | 10.15

[3]
Settings | excess molar enthalpy [kcal/mol]
x1 = 0.0555 | 0.0404
x1 = 0.1212 | 0.0663
x1 = 0.1842 | 0.0823
x1 = 0.2443 | 0.0929
x1 = 0.3301 | 0.0988
x1 = 0.3903 | 0.0996
x1 = 0.4444 | 0.0966
x1 = 0.4998 | 0.092
x1 = 0.5887 | 0.0806
x1 = 0.6799 | 0.0665
x1 = 0.7389 | 0.0565
x1 = 0.8478 | 0.037
x1 = 0.9309 | 0.0215

O=C1CCCN1 [2-pyrrolidinone] + CCCCO
[2]
Settings | mass density, 293.15 K [kg/m3] | mass density, 298.15 K [kg/m3] | mass density, 303.15 K [kg/m3] | viscosity, 293.15 K [mPa·s] | viscosity, 298.15 K [mPa·s] | viscosity, 303.15 K [mPa·s]
x1 = 0.0956 | 834.48 | 830.55 | 826.97 | 3.3 | 2.884 | 2.456
x1 = 0.1784 | 856.72 | 852.86 | 849.3 | 3.346 | 3.05 | 2.431
x1 = 0.2445 | 874.89 | 871.15 | 867.57 | 3.373 | 3.071 | 2.433
x1 = 0.3055 | 892 | 888.27 | 884.73 | 3.548 | 3.028 | 2.504
x1 = 0.3874 | 915.45 | 911.87 | 908.31 | 3.595 | 3.119 | 2.638
x1 = 0.4434 | 931.79 | 928.29 | 924.72 | 3.893 | 3.426 | 2.899
x1 = 0.4996 | 948.45 | 945.03 | 941.5 | 4.198 | 3.74 | 3.211
x1 = 0.5944 | 977.19 | 973.95 | 970.39 | 5.167 | 4.682 | 3.921
x1 = 0.6573 | 996.67 | 993.5 | 990.11 | 6.087 | 5.497 | 4.578
x1 = 0.7236 | 1017.57 | 1014.53 | 1011.05 | 7.353 | 6.572 | 5.384
x1 = 0.7983 | 1041.7 | 1038.72 | 1035.32 | 9.017 | 8.117 | 6.428
x1 = 0.8554 | 1060.58 | 1057.59 | 1054.15 | 10.75 | 9.56 | 7.469
x1 = 0.9121 | 1079.61 | 1076.71 | 1073.26 | 12.57 | 11.01 | 8.726
x1 = 0.9778 | 1102.22 | 1099.35 | 1095.78 | 14.88 | 12.7 | 10.3

[3]
Settings | excess molar enthalpy [kcal/mol]
x1 = 0.0564 | 0.0234
x1 = 0.1225 | 0.039
x1 = 0.1877 | 0.0496
x1 = 0.2452 | 0.0563
x1 = 0.3266 | 0.0598
x1 = 0.3884 | 0.0603
x1 = 0.4453 | 0.0581
x1 = 0.5022 | 0.0556
x1 = 0.5963 | 0.0493
x1 = 0.6844 | 0.0412
x1 = 0.7452 | 0.0346
x1 = 0.8553 | 0.0227
x1 = 0.9278 | 0.0126

CCCCO [butan-1-ol]
[1]
Settings | mass density [kg/m3] | viscosity [mPa·s]
293.15 K | 809.52 | 2.941
298.15 K | 805.54 | 2.572
303.15 K | 801.92 | 2.275

CCC(C)O (stereo not given) [butan-2-ol]
[1]
Settings | mass density [kg/m3] | viscosity [mPa·s]
293.15 K | 805.54 | 3.625
298.15 K | 802.06 | 2.998
303.15 K | 798.45 | 2.489

Source: the NIST ThermoML archive (doi:10.1021/je801006q)
